One assay has as its target T1, human ASIC1a (Homo sapiens, UniProt P78348).
T1 construct: expressed in transfected cells
Kind of assay: Whole-cell patch-clamp currents in CHO cells stably expressing ASIC. The class given is cell-based. To be noted: 10 μM S18. The method, then:
(§1) Previously described cell lines expressing human ASIC1a, human ASIC2a and rat ASIC3 were used in these experiments (Poirot, J. Biol. Chem. 279: 38448 (2004))). Electrophysiological measurements were carried out with an EPC10 patch-clamp amplifier (HEKA Electronics, Lambrecht, Germany) as previously described (Blanchard et al., Pflugers Arch. 461:123 (2011)).
(§2) Whole-cell currents were measured from CHO cells stably expressing acid-sensing ion channel (ASIC) subunits, voltage clamped to −60 mV. Stimulations lasted 5 s and were performed every 45 s. Cells were stimulated three times with pH 6.6 (ASIC1a and -3) or pH 4 (ASIC2a). Between stimulations, cells were returned to a pH 7.4 conditioning solution for […] recovery from inactivation. The conditioning solution was then switched to a pH 7.4 solution containing 10 μM S18. Three stimulations in the presence of 10 μM S18 were performed before washing off the peptide. Current amplitudes of the above described experiments were normalized to the first control value and plotted as a function of time (FIG. 28B). S18 was added at T=0 s. ASIC1a=▪, ASIC2a=●, ASIC3=▴, all n=3. Cells were incubated for 40 s in a pH 7.1 (ASIC1a and -3) or 5.6 (ASIC2a) conditioning solution, then activated using an acidic stimulus (pH 5 for ASIC1a and -3, and pH 4 for ASIC2a) (FIG. 28C). Experiments were performed with or without 10 μM S18 in the conditioning solution. Current amplitudes measured during the acidic stimulus were normalized to the control amplitude obtained with a pH 7.4 conditioning solution. Open bars=control, closed bars=S18, all n=3-4. […] Stimulations were performed every 45 s. The protocol was performed with or without 10 μM S18 in all solutions. The average current is plotted as a function of time. […] Control=∘, S18=▪, all n=3-5.

A further assay deals with T2, human ASIC2a (Homo sapiens, UniProt Q16515).
T2 construct: expressed in transfected cells
T2 sequence (Q16515 whole entry): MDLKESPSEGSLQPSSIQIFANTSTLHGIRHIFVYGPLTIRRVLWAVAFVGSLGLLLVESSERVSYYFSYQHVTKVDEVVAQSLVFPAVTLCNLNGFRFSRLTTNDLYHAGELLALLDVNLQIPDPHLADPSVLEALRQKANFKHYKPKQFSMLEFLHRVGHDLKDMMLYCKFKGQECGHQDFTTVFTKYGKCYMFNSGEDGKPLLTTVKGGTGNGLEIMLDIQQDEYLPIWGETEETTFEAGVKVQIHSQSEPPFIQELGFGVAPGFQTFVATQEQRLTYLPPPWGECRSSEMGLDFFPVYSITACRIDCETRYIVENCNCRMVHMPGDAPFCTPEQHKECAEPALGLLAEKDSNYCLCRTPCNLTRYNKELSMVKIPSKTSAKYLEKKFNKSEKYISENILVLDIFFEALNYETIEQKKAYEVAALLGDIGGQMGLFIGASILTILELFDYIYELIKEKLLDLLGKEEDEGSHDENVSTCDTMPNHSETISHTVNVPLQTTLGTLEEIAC
Described as above. The class given is cell-based. To be noted: 10 μM S18. As to the method: as §1, §2

In the next assay the target is T3, rat ASIC3 (Rattus norvegicus, UniProt O35240).
T3 construct: expressed in transfected cells
T3 sequence (O35240 whole entry): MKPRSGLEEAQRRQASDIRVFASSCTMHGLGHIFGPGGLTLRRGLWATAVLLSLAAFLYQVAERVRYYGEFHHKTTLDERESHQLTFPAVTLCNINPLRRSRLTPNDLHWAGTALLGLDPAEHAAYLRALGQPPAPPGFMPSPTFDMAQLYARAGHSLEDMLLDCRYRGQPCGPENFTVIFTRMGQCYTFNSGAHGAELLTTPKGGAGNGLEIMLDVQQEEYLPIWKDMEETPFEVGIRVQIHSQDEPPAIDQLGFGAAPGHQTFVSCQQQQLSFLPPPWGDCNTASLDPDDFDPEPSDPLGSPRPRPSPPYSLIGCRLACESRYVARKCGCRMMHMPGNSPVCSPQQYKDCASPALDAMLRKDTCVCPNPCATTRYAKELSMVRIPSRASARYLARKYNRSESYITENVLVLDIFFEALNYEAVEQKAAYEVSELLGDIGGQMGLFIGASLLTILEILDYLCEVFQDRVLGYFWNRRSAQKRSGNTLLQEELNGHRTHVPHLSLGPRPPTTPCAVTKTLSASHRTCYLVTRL
The assay is described as above. Format: cell-based. To be noted: 10 μM S18. The method, then:
as §1, §2

In a further assay the target is T4, αENaC (Homo sapiens, UniProt P37088).
T4 sequence (P37088 1-669): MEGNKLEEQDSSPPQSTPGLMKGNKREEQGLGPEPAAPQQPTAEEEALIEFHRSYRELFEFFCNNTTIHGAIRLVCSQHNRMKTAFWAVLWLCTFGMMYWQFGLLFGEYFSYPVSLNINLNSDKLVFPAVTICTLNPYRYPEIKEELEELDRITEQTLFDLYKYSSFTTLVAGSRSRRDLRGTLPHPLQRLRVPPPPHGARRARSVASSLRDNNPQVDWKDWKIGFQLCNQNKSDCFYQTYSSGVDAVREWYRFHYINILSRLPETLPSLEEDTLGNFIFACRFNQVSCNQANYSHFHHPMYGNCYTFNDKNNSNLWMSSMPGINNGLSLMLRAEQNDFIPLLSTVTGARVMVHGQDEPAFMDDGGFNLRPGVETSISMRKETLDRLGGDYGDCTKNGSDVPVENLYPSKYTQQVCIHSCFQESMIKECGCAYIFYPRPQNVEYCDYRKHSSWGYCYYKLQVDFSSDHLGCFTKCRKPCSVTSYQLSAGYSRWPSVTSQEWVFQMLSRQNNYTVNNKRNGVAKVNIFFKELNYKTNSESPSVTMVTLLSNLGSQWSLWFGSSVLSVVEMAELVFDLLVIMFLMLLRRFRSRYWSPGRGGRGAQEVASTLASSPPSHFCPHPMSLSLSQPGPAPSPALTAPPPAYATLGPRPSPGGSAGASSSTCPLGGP
Kind of assay: Biotinylated peptide pull-down of ENaC subunits from HEK293T cells. Format: binding. Also on record: expressed in transfected cells; host or cells: HEK293T cells (lysate). To be noted: subunits individually expressed. As to the method: HEK293T cells were transfected with double-tagged human ENaC subunits with HA and V5 epitopes at the N- and C-termini, respectively, in combination with wild-type untagged subunit cDNA. When all three ENaC subunits were expressed, 0.5 μg of each subunit were transfected per well. When expressed individually, 0.75 μg of the subunit were transfected per well. The transfected cells were lysed 24 h later using NP-40 buffer with 1× complete EDTA-free protease inhibitor (Roche, Basel, Switzerland). The lysate was centrifuged at 16,300×g for 15 minutes at 4° C. and the supernatant collected. Protein concentration was determined using the BCA assay and 500 μg of protein plus 0.25 mg peptide and 100 μL of neutravidin were added to a spin column and rotated end-over-end at 4° C. for 24 h (all ThermoFisher Scientific, Rockford, Ill., USA). Flow-through was collected by centrifugation at 1000×g for 30 s. […] The membrane was probed using 1:1000 anti-V5 antibody (Invitrogen, Carlsbad, Calif., USA) overnight at 4° C. in 3% fish gelatin in TBS-T. The blot was then incubated for 1 h at room temperature with an ECL sheep anti-mouse IgG secondary antibody and detected by ECL reagent (ThermoFisher Scientific, Waltham, Mass., USA) or by incubation with a goat anti-mouse IRDye secondary antibody and analyzed by an Odyssey infrared imaging system (LI-COR Biosciences, Lincoln, Nebr., USA).

Ends that are not written are not given here.

The values below come from US9127040B2, “Regulation of sodium channels by PLUNC proteins” (The University of North Carolina at Chapel Hill, priority 2011, dated 2015).

T1 sequence (P78348 whole entry): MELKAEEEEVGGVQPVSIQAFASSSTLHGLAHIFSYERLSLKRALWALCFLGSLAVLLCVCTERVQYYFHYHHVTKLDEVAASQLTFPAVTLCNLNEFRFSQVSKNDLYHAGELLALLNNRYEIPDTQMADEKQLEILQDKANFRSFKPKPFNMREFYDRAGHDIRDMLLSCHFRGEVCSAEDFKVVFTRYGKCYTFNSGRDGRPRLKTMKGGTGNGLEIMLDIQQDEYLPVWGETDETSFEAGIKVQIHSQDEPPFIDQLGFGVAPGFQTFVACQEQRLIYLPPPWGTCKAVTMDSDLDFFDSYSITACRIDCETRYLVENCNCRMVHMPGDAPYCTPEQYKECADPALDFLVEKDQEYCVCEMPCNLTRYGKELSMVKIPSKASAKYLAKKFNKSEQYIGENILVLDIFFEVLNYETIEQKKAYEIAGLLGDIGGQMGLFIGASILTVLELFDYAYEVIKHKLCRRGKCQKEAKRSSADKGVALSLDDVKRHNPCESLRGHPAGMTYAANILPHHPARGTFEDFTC

GGLPVPLDQTLPLNVNPA [S18]: on human ASIC1a, the “function of ASIC1a channels” value is given as “does not Affect the Function”. Besides, the “function of ASIC2a channels” value at human ASIC2a was “does not Affect the Function”. Further, the “function of ASIC3 channels” value on rat ASIC3 is on record as “does not Affect the Function”. The “binding to αENaC (pull-down)” value at αENaC is on record as “without any detectable binding”.
